From PubChem BioAssay (NCI)
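These data come from cells grown in 96-well plates and exposed to compound for 48 hours at five concentrations. At the TGI there is no net growth.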

What was measured:
Assay in all cases: NCI-60 cell line screen, 48 h
M14 melanoma = system: M14 melanoma
KM12 colon = system: KM12 colon
TK-10 renal = system: TK-10 renal
COLO 205 colon = system: COLO 205 colon
HCT-15 colon = system: HCT-15 colon
NCI-H460 lung = system: NCI-H460 lung
OVCAR-8 ovarian = system: OVCAR-8 ovarian
SW-620 colon = system: SW-620 colon
UACC-62 melanoma = system: UACC-62 melanoma
NCI-H226 lung = system: NCI-H226 lung

Structure (SMILES)	TGI (M14 melanoma) [µM]	TGI (KM12 colon) [µM]	TGI (TK-10 renal) [µM]	TGI (COLO 205 colon) [µM]	TGI (HCT-15 colon) [µM]	TGI (NCI-H460 lung) [µM]	TGI (OVCAR-8 ovarian) [µM]	TGI (SW-620 colon) [µM]	TGI (UACC-62 melanoma) [µM]	TGI (NCI-H226 lung) [µM]
O=C(C(Cl)=C(N1CCOCC1)N1CCOCC1)C(Cl)Cl	> 100	> 100	> 100	> 100	> 100	> 100	> 100	> 100	> 100	> 100
O=c1[nH]nc(Cc2ccccc2)n1/N=C/c1ccncc1	> 100	> 100	> 100	> 100	> 100	> 100	> 100	> 100		> 100
CCOC(=O)C1CCC(=O)N1C(=O)c1ccccc1 (configuration not stated)	> 100	> 100	> 100		> 100	> 100	> 100	> 100	> 100	> 100
c1c2c(cc(-n3nnc4c3CCCCCC4)c1-n1nnc3c1CCCCCC3)CCCCCC2	32.8	25.8	25.4		19	18.9	38.7	27.4	26.7	41.6
CN(C)CCNC(=O)c1cccc2nc(-c3ccccc3)oc12		> 100		42.8	> 100	> 100	> 100	> 100	> 100	84
Cc1ccc(/C=C2\Cc3c(C)cc(C)cc3C2=O)c(C(=O)O)c1	> 100	> 100	> 100	98.2	> 100	> 100	> 100	> 100	> 100	71.4
O=C1CSC2=NC3=C(COC/C3=C\c3ccc(Br)cc3)C(c3ccc(Br)cc3)N12 (configuration not stated)	94.6	> 100	> 100	> 100	> 100	> 100	> 100	> 100	> 100	> 100
Nc1nn2c(=O)c3ccccc3nc2s1	93.8	> 100	> 100	> 100	> 100	> 100	> 100	38.5	> 100	91.1
CCOC(=O)c1nnsc1NN	> 100	> 100	> 100	> 100	> 100	> 100	> 100	> 100	> 100	> 100
O=c1[nH]c(Nc2cccc(CO)c2)nc2nc[nH]c12	> 100	> 100	> 100	> 100	> 100		> 100	> 100	> 100	> 100
CN(C)CC1CCC(CN(C)C)C1=O (configuration not stated)	7.38	26.7	28.2	1.41	4.82	45.6	10.3	10.4	27.2	38.8
C[n+]1c(-c2ccc(/C=C/C=N\NC(=O)c3ccc(C(=O)N/N=C\C=C\c4ccc(-c5cn6ccccc6[n+]5C)cc4)cc3)cc2)cn2ccccc21	> 100	> 57.5	> 100	> 100	> 100	> 100	> 100	> 100	> 100	> 100
CC(=O)OCc1c(O)c2c(c(O)c1COC(C)=O)C(=O)C=CC2=O	23.7	28.2	30	10.5	38.1		30.2	14.3	19.3	32.5
COc1ccc(N(C(=O)Nc2ccc(Cl)c(Cl)c2)C2c3cccn3C(=O)N2c2ccc(Cl)c(Cl)c2)cc1 (configuration not stated)	> 100	> 100	> 100	> 100	> 100	> 100	> 100	> 100	> 100	> 100
CC(C)(C)c1cc(C(=O)/C=C/c2ccc3c(c2)OCO3)cc(C(C)(C)C)c1O	65.3	22.7	58.1	13.2	33.9	15.7	> 100	35.8	> 45.5	> 80.6
CCOC(=O)c1cn2c(n1)sc1cc(Cl)cc(Cl)c12	> 100	> 100	> 100	> 100	> 100	> 100	> 100	> 100	> 100	> 100
CO[C@]12C[C@H](CNC(=O)c3ccc[nH]3)O[C@H]1NC(=O)N2	> 100	> 100	> 100	> 100	> 100	> 100	> 100	> 100	> 100	> 100
CCCCCCCCCc1nn2c(Cc3ccccc3)nnc2s1	38.6	57.7	54.5	41	35.4	39.2	29.8	33.5	37.7	
O=c1cc(-c2ccccc2)oc2c(-c3cc(Cl)cc4c(=O)cc(-c5ccccc5)oc34)cc(Cl)cc12	> 100	> 100	> 100	> 100	> 100	> 100	> 100	> 100	48.4	83
C=C1c2nc3ccccc3n2C=C(c2ccc(Cl)cc2)N1c1ccc(OC)cc1	21	18.7	13.2	> 100	22.5	18.7	15.8	> 100	> 100	15.6
N#Cc1c(-c2ccccc2)cc(-c2ccc(Cl)cc2)[nH]c1=S	> 100	> 100	> 100	71.1	> 100	> 100	> 100	> 100	92.1	80.5
